Reference: patent US7335770B2, “Triazine compounds and their analogs, compositions, and methods” (Reddy U5 Therapeutics, Inc., priority 2004, dated 2008)
Where a name gives a salt, the structure may show the parent alone.

Columns and labels:
IL6 = assay: inhibition of TNF-induced IL6 production; format: cell-based; settings: for IC50: given as '50% at x μM', read-out: Inhibition of TNF-induced IL6 production: concentration giving 50% inhibition
VCAM1 = assay: inhibition of TNF-induced VCAM1; format: cell-based; settings: for IC50: in vitro
Protocol: (§1) The activity of the compounds of the present invention in inhibiting glycated protein- and AGE-induced inflammation can be determined using the assays described herein and in U.S. patent application Ser. No. 10/026,335, which is herein incorporated in its entirety. Such assays comprise measurement of the specific activity of biological components involved in a known cellular response. The assays provide a measurable response in which the activity of the compounds is determined. One assay comprises measurement of the effects of compounds on an inflammatory response by cells to the presence of a stimulating agent. Yet another assay comprises endothelial cells that are stimulated by the addition of a glycated protein, the stimulating agent. The endothelial cells respond by producing specific cytokines. The amount of cytokines produced are determined by measurement protocols known to those skilled in the art. The compounds of the present invention are then added to the assay and the production of cytokines is measured. From the comparison of the assay without the compound with the assay with the compound, the biological effect of the compound can be determined. The compound may have an inhibitory effect, a stimulatory effect, or no effect at all.
An aspect of the present invention comprises methods and compositions for the treatment of diseases, preconditions or pathologies associated with inflammatory cytokines and other inflammation related molecules including, but not limited to IL-6, VCAM-1, AGE-induced MCP-1, (monocyte chemoattractant protein 1), heme oxygenase, insulin-like growth factor, selectins, IP-10, MIG and I-TAC, NF-κB, IL-1β (interleukin 1β), IL-11 (interleukin 11), m-CSF (macrophage colony stimulating factor), fibrinogen, TNF-α (tumor necrosis factor α), adhesion molecules, selecting, VCAM-1 (Vascular Cell Adhesion Molecule-1), CRP (C-reactive protein), and PAI-1 (plasminogen activator inhibitor-1). Examples of such diseases include the pathogenesis of atherosclerosis and the development of diabetic vasculopathy in type II diabetes. For example, affecting the activity or level of TNFα is a key mediator of tissue damage following acute or chronic inflammatory reactions. The present invention contemplates providing compositions and methods that modulate the effects of cytokines and inflammatory molecules such as TNFα, IL-6, VCAM-1, IP-10, MIG, I-TAC and AGE-induced MCP-1, and treat the associated diseases, acute or chronic conditions, preconditions and pathologies.
(§2) Assays for determining the activity of compounds capable of modulating inflammation include those taught in U.S. patent application Ser. No. 10/026,335 and 09/969,013, which are both expressly incorporated by reference. In general, once the baseline response to the stimulating agent for the production of cytokines by the endothelial cells is established, thus comprising the control levels for the screening assay, the methods comprise addition of compounds of the present invention. The effect of the compound on the baseline response is determined by comparing the amount of cytokine produced in the presence of the stimulating agent and the amount of cytokine produced in the presence of the stimulating agent and the compound of the present invention. In a preferred method, compounds that have inhibitory effects on the inflammation of the cells in the presence of glycated albumin are then used as therapeutic agents. One or more compounds may be added to the screening assay. Combinations or mixtures of compounds can be added. Different amounts and formulations of the compounds are added to determine the effects on the screening assay. The screening assay may also be used to determine stimulatory compounds or compounds that have no effects in the assay.

MCP1 = assay: inhibition of TNF-induced MCP1; format: cell-based; settings: for IC50: in vitro
Protocol: as §1
The amount and type of cytokine produced can be determined using immunological methods, such as ELISA assays. The methods of the present invention are not limited by the type of assay used to measure the amount of cytokine produced, and any methods known to those skilled in the art and later developed can be used to measure the amount of cytokines produced in response to the stimulating agent and to the compound having unknown activity.
as §2

[1] = tested on: smooth muscle cells (SMC); assay: anti-proliferation assay (perlecan); format: cell-based; settings: using the same activity scale used in Table 3
Method in brief: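 Compounds are added to smooth muscle cells in growth or serum-free medium. The change in proliferation is measured, e.g. by labelled-nucleotide incorporation into DNA, against untreated cells; IC50 values are given as activity bins.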

Row | SMILES | IC50 (IL6) [µM] | IC50 (VCAM1) [µM] | IC50 (MCP1) [µM] | other results
1 | COc1ccc(Oc2nc(Oc3ccc(OC)c(F)c3)nc(Oc3ccc(OC)c(F)c3)n2)cc1F [drawing 608, 2,4,6-Tris-(3-fluoro-4-meth-oxy-phenoxy)-[1,3,5]triazine] | – | – | – | inhibition at 10 µM (IL6): 5%
2 | COc1ccc(Nc2nc(NC3CCCCCC3)nc(NC3CCN(C(=O)CCCCC4SCC5NC(=O)NC54)CC3)n2)cc1Cl (centres unmarked) [drawing 610] | 19 | – | – | –
3 | CN1CCC(N(C)c2nc(Nc3cccc(F)c3)nc(NC3CCCCCC3)n2)CC1 [drawing 612, N-Cyclo-heptyl-N′-(3-fluoro-phenyl)-N″-meth-yl-N″-(1-methyl-piperidin-4-yl)-[1,3,5]tri-azine-2,4,6-triamine] | 3.2 | – | – | –
4 | CCN1CCCC1CNc1nc(Nc2ccc(OCc3ccccc3)c(Cl)c2)nc(NC2CCCCCC2)n1 (centres unmarked) [drawing 607, N-(4-Benzyloxy-3-chloro-phenyl)-N′-cyclo-heptyl-N″-(1-ethyl-pyrrolidin-2-yl-methyl)-[1,3,5]triazine-2,4,6-triamine] | 1.1 | – | – | –
5 | COc1ccc(Nc2nc(NC3CCCCCC3)nc(OC3CCN(C)CC3)n2)cc1Cl [drawing 615] | – | 4.5 | 4.3 | –
6 | COc1ccc(Nc2nc(NC3CCCCCC3)nc(OC3CCCN(C(C)=O)C3)n2)cc1Cl (centres unmarked) [drawing 617] | – | 5.2 | 4.6 | –
7 | Cc1ccc(Nc2nc(NC3CCCCCC3)nc(N(C)C3CCN(C)CC3)n2)cc1F [drawing 605, N-Cycloheptyl--N′-(3-fluoro-4-methyl-phenyl)-N″-meth-yl-N″-(1-methyl-piperidin-4-yl)-[1,3,5]tri-azine-2,4,6-triamine] | 3.6 | – | – | –
8 | COc1ccc(Oc2nc(Oc3ccc(OC)c(F)c3)nc(Oc3ccc(OC)c(F)c3)n2)cc1F [2,4,6-Tris-(3-fluoro-4-methoxy-phenoxy)-[1,3,5]triazine] | – | – | – | melting point: > 210 °C; activity in anti-proliferation assay (Perlecan), in words [1]: high activity
9 | CCN1CCCC1CNc1nc(Nc2ccc(C)c(F)c2)nc(NC2CCCCCC2)n1 (centres unmarked) [drawing 604, N-Cycloheptyl-N′-(1-ethyl-pyrrolidin-2-yl-methyl)-N″-(3-fluoro-4-meth-yl-phenyl)-[1,3,5]tri-azine-2,4,6-triamine] | 3.3 | – | – | –
10 | COc1ccc(Nc2nc(NC3CCCCCC3)nc(Oc3ccc(C#CC(C)(C)O)cc3)n2)cc1Cl [drawing 620] | – | 7 | 3.7 | –
11 | COc1ccc(Nc2nc(NCCCCCNC(=O)CCCCC3SCC4NC(=O)NC43)nc(NC3CCCCCC3)n2)cc1Cl (centres unmarked) [drawing 609, 5-(2-Oxo-hexahydro-thieno[3,4-d]imi-dazol-4-yl)-pentanoicacid {5-[4-(3-chloro-4-methoxy-phenylamino)-6-cycloheptylamino-[1,3,5]tri-azin-2-ylamino]-pentyl}-amide] | 5 | – | – | –
12 | CN1CCC(N(C)c2nc(Nc3cccc([N+](=O)[O-])c3)nc(NC3CCCCCC3)n2)CC1 [drawing 606, N-Cycloheptyl-N′-methyl-N′-(1-methyl-piper-idin-4-yl)-N″-(3-nitro-phenyl)-[1,3,5]tri-azine-2,4,6-triamine] | 3.3 | – | – | –
13 | COc1ccc(Nc2nc(NC3CCCCCC3)nc(OCC3CCCN3C)n2)cc1Cl (centres unmarked) [drawing 614] | – | 2.5 | 3 | –
14 | CCN1CCCC1CNc1nc(Nc2ccc(OC)c(F)c2)nc(N2CCN(CC(=O)N3CCCC3)CC2)n1 (centres unmarked) [drawing 613, 2-{4-[4-[(1-Ethyl-pyrrolidin-2-ylmethyl)-amino]-6-(3-fluoro-4-meth-oxy-phenylamino)-[1,3,5tri-azin-2-yl]-pipera-zin-1-yl}-1-pyrrolidin-1-yl-eth-anone dihydrogen chloride salt] | – | – | – | inhibition at 10 µM (IL6): 42%
15 | Cc1ccc(Nc2nc(NC3CCCCCC3)nc(N(C)C3CCN(C)CC3)n2)cc1F | – | – | – | melting point: 93 °C
16 | CCN1CCCC1CNc1nc(Nc2ccc(C)c(F)c2)nc(NC2CCCCCC2)n1 (centres unmarked) [Example 32, N-Cycloheptyl-N′-(1-ethyl-pyrrolidin-2-ylmethyl)-N″-(3-fluoro-4-methyl-phenyl)-[1,3,5]triazine-2,4,6-triamine] | – | – | – | melting point: 78 °C
17 | COc1ccc(Nc2nc(NC3CCCCCC3)nc(Oc3ccc(C=O)cc3)n2)cc1Cl [drawing 623] | – | 5.2 | 6 | –
18 | COc1ccc(Nc2nc(NC3CCCCCC3)nc(Oc3ccccc3C#CC(C)(C)O)n2)cc1Cl [drawing 621] | – | 7 | 6.5 | –
19 | COc1ccc(Nc2nc(NC(C)C)nc(Oc3ccc(C#CC(C)(C)O)cc3)n2)cc1Cl [drawing 627] | – | 5.7 | 3 | –
20 | COc1ccc(Nc2nc(NCC3CCCO3)nc(NC3CCCCCC3)n2)cc1Cl (centres unmarked) [Example 37, N-(3-Chloro-4-methoxy-phenyl)-N′-cycloheptyl-N″-(tetrahydro-furan-2-ylmethyl)-[1,3,5]triazine-2,4,6-triamine] | – | – | – | melting point: 77 °C
21 | CCN1CCCC(Oc2nc(Nc3ccc(OC)c(Cl)c3)nc(NC3CCCCCC3)n2)C1 (centres unmarked) [drawing 622] | – | 6 | 4.2 | –
22 | COc1ccc(Nc2nc(NC3CCCCCC3)nc(Oc3ccccc3C#CC(C)(C)O)n2)cc1Cl [Example 12, 4-{2-[4-(3-chloro-4-methoxyanilino)-6-cycloheptylamino-1,3,5-triazine-2-yl-oxy]-phenyl}-2-methyl-3-butyn-2-ol] | – | – | – | melting point: 150 to 158 °C
23 | COc1ccc(Nc2nc(NCCNC(=O)OC(C)(C)C)nc(NC3CCCCCC3)n2)cc1Cl [drawing 602, {2-[4-(3-Chloro-4-meth-oxy-phenylamino)-6-cyclo-heptylamino-[1,3,5]triazin-2-ylamino]-eth-yl}-carbamic acid tert-butyl ester] | 15 | – | – | –
24 | COc1ccc(Nc2nc(NC3CCCCCC3)nc(Sc3c(Cl)cccc3Cl)n2)cc1Cl [drawing 631] | – | – | – | inhibition at 10 µM (VCAM1; @ 10 uM concentration, read-out: TNF-induced VCAM1, In-vitro % of inhibition): 6%; inhibition at 10 µM (MCP1; @ 10 uM concentration, read-out: TNF-induced MCP1, In-vitro % of inhibition): 11%
25 | COc1ccc(Nc2nc(NCCN)nc(NC3CCCCCC3)n2)cc1Cl [drawing 603, N-(2-Amino-eth-yl)-N′-(3-chloro-4-methoxy-phe-nyl)-N″-cycloheptyl-[1,3,5]triazine-2,4,6-tri-amine] | 2.7 | – | – | –
